From ChEMBL document CHEMBL6134863, “Novel Mitochondria-Targeted Asymmetric Heptamethine Cyanine Dye for Cancer Targeted NIR Imaging and Potent Necrosis and Senescence Induction with Prolonged Retention” (J Med Chem, 2025) come the findings set out here.

Each structure is given as a SMILES string. Calls of active or inactive are those of the source. The calls are words filed in the database; no cut-off is given here. A value given as a limit tells only on which side of the number the result lay.

Series [1] can be described thus: Cytotoxicity against human Primary lung fibroblast assessed as decrease in cell viability up to 10 uM incubated for 24 hrs by CCK-8 assay. The series is classed as toxicity, cell-based.
A short description of series [2]: Antioxidant activity of compound in presence of L-Cysteine. The series is classed as functional.
Series [3] can be described thus: Ratio of drug level in tumor to muscle of BALB/c mouse implanted with mouse 4T1 cells at 0.5 mg/kg, iv measured at 12 to 24 hrs. The series is classed as ADME, organism-based. The settings on record: in vivo, time 12-24 hrs.
A short description of series [4]: Antioxidant activity of compound in presence of NH4+. The format is functional.
Series [5] in a line: Drug accumulation in BALB/c mouse tumor xenografted with human NCI-H520 cells assessed as increase in fluorescence intensity at 0.5 mg/kg, iv measured at 96 hrs by imaging based analysis. The settings on record: in vivo. The series is classed as ADME, organism-based, Neoplasm.
Series [6] can be described thus: Toxicity in BALB/c mouse implanted with mouse 4T1 cells assessed as liver damage at 5 mg/kg, iv measured for 11 days by H and E staining based analysis. The series is classed as organism-based. The note with it: in vivo, 264 h, time 11 day.
A short description of series [7]: Acute toxicity in BALB/c mouse implanted with mouse 4T1 cells at 5 mg/kg, iv measured for 11 days. The format is organism-based. The settings on record: in vivo, 264 h, time 11 day.
Series [8] relates to Squamous carcinoma cell line. The series can be described thus: Antitumor activity against patient-derived Squamous carcinoma cell line xenografted in BALB/c mouse assessed as tumor growth inhibition at 0.5 mg/kg, iv measured for 5 days. The series is classed as functional, organism-based. The note with it: Homo sapiens, time 5.0 day.
Series [9] has as its system NCI-H226. The series can be described thus: Induction of apoptosis in human NCI-H226 cells assessed as late apoptotic cells at 5 uM incubated for 48 hrs by Annexin V-FITC/PI staining based flow cytometry (reference value: 3.61 %). The format is functional.
The nature of series [10]: Toxicity in BALB/c mouse implanted with mouse 4T1 cells assessed as heart damage at 5 mg/kg, iv measured for 11 days by H and E staining based analysis. The format is organism-based. The note with it: in vivo, 264 h, time 11 day.
A short description of series [11]: Drug accumulation in BALB/c mouse tumor implanted with mouse 4T1 cells assessed as increase in fluorescence intensity at 0.5 mg/kg, iv measured at 96 hrs by DAPI staining based fluorescence microscopic analysis. The series is classed as ADME, organism-based, Neoplasm. The settings on record: in vivo.
Series [12] deals with NCI-H226. The series can be described thus: Induction of ROS production in human NCI-H226 cells at 5 uM incubated for 24 hrs by flow cytometry analysis. The series is classed as functional, cell-based.
The test system of series [13] is NCI-H226. The series can be described thus: Induction of DNA damage in human NCI-H226 cells assessed as increase in gamma-H2AX level at 5 uM incubated for 24 hrs by immunofluorescence analysis. The format is functional, cell-based.

Take `CCCN1/C(=C/C=C2\CCCC(/C=C/C3=[N+](Cc4ccc(C(=O)O)cc4)c4ccccc4C3(C)C)=C2Cl)C(C)(C)c2ccccc21.[Br-]`: the Activity entry in series [1] is given as “Non-toxic”; in [6] it was “Non-toxic”; in series [7] it was “Non-toxic”; in the series on NCI-H226 [9], 14%; in series [10], “Non-toxic”. In addition, the outcome (in [2]; in [4]; in the series with NCI-H226 [12]; in the series with NCI-H226 [13]) was Active. Further, in series [3], the Ratio is given as greater than 5. Also, the Drug uptake result in series [5] and in series [11] was “Active” throughout. The TGI entry in series [8] was “Active”.
